Laboratory results reported in ChEMBL document CHEMBL6153110, “Peptide Double-Stapling and Arginine N-Glycosylation Triggered the Development of Therapeutic Antimicrobial Peptides Capable of Killing Drug-Resistant Bacteria in Mice” (J Med Chem, 2025).
Values after ≈ are worked out from the molar mass of the structure shown. Starred links: 1 amine or outer side, 2 acyl side, 3 side chain; linkers in the order of their positions; H or OH if unused. Positions of bridges follow the written chain, without caps; N, C: chain ends. Non-standard residues stand in square brackets, D forms with d. Residues, ends and D or L forms follow the SMILES beside them. ξ: configuration not given here. X1 = N=C(NCCC[C@H](N[*:1])C(=O)[*:2])N[C@@H]1O[C@H](CO)[C@@H](O[C@H]2O[C@H](CO)[C@@H](O[C@H]3O[C@H](CO)[C@@H](O)[C@H](O)[C@H]3O)[C@H](O)[C@H]2O)[C@H](O)[C@H]1O; Arg(Nω-βLac) = N=C(NCCC[C@H](N)C(=O)O)N[C@@H]1O[C@H](CO)[C@@H](O[C@@H]2O[C@H](CO)[C@H](O)[C@H](O)[C@H]2O)[C@H](O)[C@H]1O; X2 = CC(=O)N[C@@H]1[C@@H](O)[C@H](O)[C@@H](CO)O[C@H]1NC(=N)NCCC[C@H](N[*:1])C(=O)[*:2]; ξαMeNle(6-ylidene) = CC(CCCC=[*:3])(N[*:1])C(=O)[*:2]; R8 = C=CCCCCCC[C@@](C)(N)C(=O)O; S5 = C=CCCC[C@](C)(N)C(=O)O; ξV = CC(C)C(N)C(=O)O

How the values were obtained:
[1] = system: Staphylococcus aureus; experiment: Antimicrobial activity against methicillin-resistant Staphylococcus aureus ATCC 43300 assessed as growth inhibition measured after 8 hrs incubation by standard broth dilution assay; type: functional
[2] = Hemolytic activity in BALB/c mouse red blood cells assessed as hemolysis incubated for 1 hrs; type: toxicity, cell-based, Erythrocyte; conditions: read-out: HD50
[3] = system: Streptococcus pneumoniae; experiment: Antimicrobial activity against Streptococcus pneumoniae ATCC 49619 assessed as growth inhibition measured after 8 hrs incubation by standard broth dilution assay; type: functional
[4] = system: Pseudomonas aeruginosa; experiment: Antimicrobial activity against Pseudomonas aeruginosa ATCC 27853 assessed as growth inhibition measured after 8 hrs incubation by standard broth dilution assay; type: functional
[5] = system: Klebsiella pneumoniae; experiment: Antimicrobial activity against Klebsiella pneumoniae ATCC 13883 assessed as growth inhibition measured after 8 hrs incubation by standard broth dilution assay; type: functional

Row | Structure (SMILES) | MIC [1] | HC50 at 1 h [2] | MIC [3] | MIC [4] | MIC [5]
1 | CC(=O)N[C@@H](CCCCN)C(=O)N[C@@H](CCCCN)C(=O)N[C@@H](CCCNC(=N)N)C(=O)N[C@H](C(=O)N[C@@H](Cc1c[nH]c2ccccc12)C(=O)N[C@@H](CCCCN)C(=O)N[C@@H](CCCNC(=N)N)C(=O)N[C@@]1(C)CCC/C=C\CCC[C@@](C)(C(=O)N[C@@H](CCCCN)C(=O)N[C@@]2(C)CCC/C=C\CCC[C@@](C)(C(=O)N[C@@H](CC(C)C)C(=O)N[C@@H](CCCCN)C(=O)N[C@@H](CCCCN)C(=O)N3CCC[C@H]3C(=O)N[C@H](C(=O)N[C@@H](CCCNC(=N)N)C(N)=O)C(C)C)NC(=O)[C@H](CCCNC(=N)N)NC(=O)[C@H](Cc3c[nH]c4ccccc34)NC(=O)[C@H](CCCCN)NC2=O)NC(=O)[C@H](CC(C)C)NC(=O)[C@H](CCCCN)NC(=O)[C@H](Cc2ccccc2)NC1=O)C(C)C (Ac-KKRVWKR[S5]FKL[S5]K[S5]KWR[S5]LKKPVR-NH2; staple (Z) 8-12, 14-18) | 2.5 µg/mL (≈ 0.769 µM) | 88.4 µg/mL | 4.7 µg/mL (≈ 1.45 µM) | 2.6 µg/mL (≈ 0.8 µM) | 38 µg/mL (≈ 11.7 µM)
2 | CC(=O)N[C@@H](CCCCN)C(=O)N[C@@H](CCCCN)C(=O)N[C@@H](CCCNC(=N)N)C(=O)N[C@H](C(=O)N[C@@H](Cc1c[nH]c2ccccc12)C(=O)N[C@@H](CCCCN)C(=O)N[C@@H](CCCNC(=N)N)C(=O)N[C@@]1(C)CCC/C=C\CCC[C@@](C)(C(=O)N[C@@H](CCCCN)C(=O)N[C@@]2(C)CCC/C=C\CCC[C@@](C)(C(=O)N[C@@H](CC(C)C)C(=O)N[C@@H](CCCCN)C(=O)N[C@@H](CCCCN)C(=O)N3CCC[C@H]3C(=O)N[C@H](C(=O)N[C@@H](CCCNC(=N)N)C(N)=O)C(C)C)NC(=O)[C@H](CCCNC(=N)N)NC(=O)[C@H](CCCCN)NC(=O)[C@H](Cc3ccc(O)cc3)NC2=O)NC(=O)[C@H](CC(C)C)NC(=O)[C@H](CCCCN)NC(=O)[C@H](Cc2ccccc2)NC1=O)C(C)C (Ac-KKRVWKR[S5]FKL[S5]K[S5]YKR[S5]LKKPVR-NH2; staple (Z) 8-12, 14-18) | 2.5 µg/mL (≈ 0.774 µM) | 38.7 µg/mL | 4.7 µg/mL (≈ 1.46 µM) | 2.6 µg/mL (≈ 0.805 µM) | 2.5 µg/mL (≈ 0.774 µM)
3 | CC(=O)N[C@@H](CCCCN)C(=O)N[C@@H](CCCCN)C(=O)N[C@@H](CCCNC(=N)N)C(=O)N[C@H](C(=O)N[C@@H](Cc1c[nH]c2ccccc12)C(=O)N[C@@H](CCCCN)C(=O)N[C@@H](CCCNC(=N)N)C(=O)N[C@H](C(=O)N[C@@H](Cc1ccccc1)C(=O)N[C@@H](CCCCN)C(=O)N[C@@H](CC(C)C)C(=O)N[C@@H](CC(C)C)C(=O)N[C@@H](CCCCN)C(=O)N[C@@]1(C)CCC/C=C\CCC[C@@](C)(C(=O)N[C@@H](CC(C)C)C(=O)N[C@@H](CCCCN)C(=O)N[C@@H](CCCCN)C(=O)N2CCC[C@H]2C(=O)N[C@H](C(=O)N[C@@H](CCCNC(=N)N)C(N)=O)C(C)C)NC(=O)[C@H](CCCNC(=N)N)NC(=O)[C@H](Cc2c[nH]c3ccccc23)NC(=O)[C@H](Cc2ccc(O)cc2)NC1=O)C(C)C)C(C)C (Ac-KKRVWKRVFKLLK[S5]YWR[S5]LKKPVR-NH2; staple (Z) 14-18) | 4.9 µg/mL (≈ 1.51 µM) | 19.2 µg/mL | 2.4 µg/mL (≈ 0.739 µM) | 2.9 µg/mL (≈ 0.893 µM) | 4.9 µg/mL (≈ 1.51 µM)
4 | CC(=O)N[C@@H](CC(C)C)C(=O)N[C@@H](CCCCN)C(=O)N[C@@H](CCCNC(=N)N)C(=O)N[C@H](C(=O)N[C@@H](Cc1c[nH]c2ccccc12)C(=O)N[C@@H](CCCCN)C(=O)N[C@@H](CCCNC(=N)N)C(=O)N[C@H](C(=O)N[C@@H](Cc1ccccc1)C(=O)N[C@@H](CCCCN)C(=O)N[C@@H](CC(C)C)C(=O)N[C@@H](CC(C)C)C(=O)N[C@@H](CCCCN)C(=O)N[C@@]1(C)CCC/C=C\CCC[C@@](C)(C(=O)N[C@@H](CC(C)C)C(=O)N[C@@H](CCCCN)C(=O)N[C@@H](CCCCN)C(=O)N2CCC[C@H]2C(=O)N[C@H](C(=O)N[C@@H](CCCNC(=N)N)C(N)=O)C(C)C)NC(=O)[C@H](CCCNC(=N)N)NC(=O)[C@H](CCCCN)NC(=O)[C@H](Cc2ccc(O)cc2)NC1=O)C(C)C)C(C)C (Ac-LKRVWKRVFKLLK[S5]YKR[S5]LKKPVR-NH2; staple (Z) 14-18) | 4.9 µg/mL (≈ 1.54 µM) | 21 µg/mL | 4.7 µg/mL (≈ 1.48 µM) | 5 µg/mL (≈ 1.57 µM) | 38 µg/mL (≈ 12 µM)
5 | CC(=O)N[C@@H](CCCCN)C(=O)N[C@@H](CCCCN)C(=O)N[C@@H](CCCNC(=N)N)C(=O)N[C@H](C(=O)N[C@]1(C)CCCCCC/C=C\CCC[C@@](C)(C(=O)N[C@@H](CCCCN)C(=O)N[C@@]2(C)CCC/C=C\CCCC(C)(C(=O)N[C@@H](CC(C)C)C(=O)N[C@@H](CCCCN)C(=O)N[C@@H](CCCCN)C(=O)N3CCC[C@H]3C(=O)N[C@H](C(=O)N[C@@H](CCCNC(=N)N)C(N)=O)C(C)C)NC(=O)[C@H](CCCNC(=N)N)NC(=O)[C@H](Cc3c[nH]c4ccccc34)NC(=O)[C@H](Cc3ccc(O)cc3)NC2=O)NC(=O)[C@H](CC(C)C)NC(=O)[C@H](CCCCN)NC(=O)[C@H](Cc2ccccc2)NC(=O)C(C(C)C)NC(=O)[C@H](CCCNC(=N)N)NC(=O)[C@H](CCCCN)NC1=O)C(C)C (stereo not given in full) (Ac-KKRV[R8]KR[ξV]FKL[S5]K[S5]YWR[ξαMeNle(6-ylidene)]LKKPVR-NH2; staple (Z) 5-12, 14-18) | 4.9 µg/mL (≈ 1.51 µM) | 12.7 µg/mL | 2.4 µg/mL (≈ 0.74 µM) | 5 µg/mL (≈ 1.54 µM) | 4.9 µg/mL (≈ 1.51 µM)
6 | CC(=O)N[C@@H](CC(C)C)C(=O)N[C@@H](CCCCN)C(=O)N[C@@H](CCCNC(=N)N)C(=O)N[C@H](C(=O)N[C@@H](Cc1c[nH]c2ccccc12)C(=O)N[C@@H](CCCCN)C(=O)N[C@@H](CCCNC(=N)N)C(=O)N[C@H](C(=O)N[C@@H](CCCCN)C(=O)N[C@@H](CCCCN)C(=O)N[C@@H](CC(C)C)C(=O)N[C@@H](CC(C)C)C(=O)N[C@@H](CCCCN)C(=O)N[C@@]1(C)CCC/C=C\CCC[C@@](C)(C(=O)N[C@@H](CC(C)C)C(=O)N[C@@H](CCCCN)C(=O)N[C@@H](CCCCN)C(=O)N2CCC[C@H]2C(=O)N[C@H](C(=O)N[C@@H](CCCNC(=N)N)C(N)=O)C(C)C)NC(=O)[C@H](CCCNC(=N)N)NC(=O)[C@H](Cc2c[nH]c3ccccc23)NC(=O)[C@H](Cc2ccc(O)cc2)NC1=O)C(C)C)C(C)C (Ac-LKRVWKRVKKLLK[S5]YWR[S5]LKKPVR-NH2; staple (Z) 14-18) | 4.9 µg/mL (≈ 1.52 µM) | 38 µg/mL | 2.4 µg/mL (≈ 0.747 µM) | 5 µg/mL (≈ 1.56 µM) | 19.2 µg/mL (≈ 5.97 µM)
7 | CC(=O)N[C@@H](CC(C)C)C(=O)N[C@@H](CCCCN)C(=O)N[C@@H](CCCNC(=N)N)C(=O)N[C@H](C(=O)N[C@@H](Cc1c[nH]c2ccccc12)C(=O)N[C@@H](CCCCN)C(=O)N[C@@H](CCCNC(=N)N)C(=O)N[C@H](C(=O)N[C@@H](Cc1ccccc1)C(=O)N[C@@H](CCCCN)C(=O)N[C@@H](CC(C)C)C(=O)N[C@@H](CC(C)C)C(=O)N[C@@H](CCCCN)C(=O)N[C@@H](CCCNC(=N)N)C(=O)N[C@@H](Cc1ccc(O)cc1)C(=O)N[C@@H](Cc1c[nH]c2ccccc12)C(=O)N[C@@H](CCCNC(=N)N)C(=O)N[C@@H](CCC(N)=O)C(=O)N[C@@H](CC(C)C)C(=O)N[C@@H](CCCCN)C(=O)N[C@@H](CCCCN)C(=O)N1CCC[C@H]1C(=O)N[C@H](C(=O)N[C@@H](CCCNC(=N)N[C@@H]1O[C@H](CO)[C@@H](O[C@@H]2O[C@H](CO)[C@H](O)[C@H](O)[C@H]2O)[C@H](O)[C@H]1O)C(N)=O)C(C)C)C(C)C)C(C)C (Ac-LKRVWKRVFKLLKRYWRQLKKPV[Arg(Nω-βLac)]-NH2) | 4.9 µg/mL (≈ 1.36 µM) | 39.7 µg/mL | 4.7 µg/mL (≈ 1.31 µM) | 5 µg/mL (≈ 1.39 µM) | 38 µg/mL (≈ 10.6 µM)
8 | CC(=O)N[C@@H](CC(C)C)C(=O)N[C@@H](CCCCN)C(=O)N[C@@H](CCCNC(=N)N)C(=O)N[C@H](C(=O)N[C@@H](Cc1c[nH]c2ccccc12)C(=O)N[C@@H](CCCCN)C(=O)N[C@@H](CCCNC(=N)N)C(=O)N[C@H](C(=O)N[C@@H](Cc1ccccc1)C(=O)N[C@@H](CCCCN)C(=O)N[C@@H](CC(C)C)C(=O)N[C@@H](CC(C)C)C(=O)N[C@@H](CCCCN)C(=O)N[C@@H](CCCNC(=N)N)C(=O)N[C@@H](Cc1ccc(O)cc1)C(=O)N[C@@H](Cc1c[nH]c2ccccc12)C(=O)N[C@@H](CCCNC(=N)N)C(=O)N[C@@H](CCC(N)=O)C(=O)N[C@@H](CC(C)C)C(=O)N[C@@H](CCCCN)C(=O)N[C@@H](CCCCN)C(=O)N1CCC[C@H]1C(=O)N[C@H](C(=O)N[C@@H](CCCNC(=N)N[C@@H]1O[C@H](CO)[C@@H](O[C@H]2O[C@H](CO)[C@@H](O[C@H]3O[C@H](CO)[C@@H](O)[C@H](O)[C@H]3O)[C@H](O)[C@H]2O)[C@H](O)[C@H]1O)C(N)=O)C(C)C)C(C)C)C(C)C (Ac-LKRVWKRVFKLLKRYWRQLKKPV[X1]-NH2) | 4.9 µg/mL (≈ 1.31 µM) | 45.7 µg/mL | 4.7 µg/mL (≈ 1.25 µM) | 2.6 µg/mL (≈ 0.693 µM) | 38 µg/mL (≈ 10.1 µM)
9 | CC(=O)N[C@@H]1[C@@H](O)[C@H](O)[C@@H](CO)O[C@H]1NC(=N)NCCC[C@H](NC(=O)[C@@H](NC(=O)[C@@H]1CCCN1C(=O)[C@H](CCCCN)NC(=O)[C@H](CCCCN)NC(=O)[C@H](CC(C)C)NC(=O)[C@H](CCC(N)=O)NC(=O)[C@H](CCCNC(=N)N)NC(=O)[C@H](Cc1c[nH]c2ccccc12)NC(=O)[C@H](Cc1ccc(O)cc1)NC(=O)[C@H](CCCNC(=N)N)NC(=O)[C@H](CCCCN)NC(=O)[C@H](CC(C)C)NC(=O)[C@H](CC(C)C)NC(=O)[C@H](CCCCN)NC(=O)[C@H](Cc1ccccc1)NC(=O)[C@@H](NC(=O)[C@H](CCCNC(=N)N)NC(=O)[C@H](CCCCN)NC(=O)[C@H](Cc1c[nH]c2ccccc12)NC(=O)[C@@H](NC(=O)[C@H](CCCNC(=N)N)NC(=O)[C@H](CCCCN)NC(=O)[C@H](CC(C)C)NC(C)=O)C(C)C)C(C)C)C(C)C)C(N)=O (Ac-LKRVWKRVFKLLKRYWRQLKKPV[X2]-NH2) | 4.9 µg/mL (≈ 1.41 µM) | 35.8 µg/mL | 4.7 µg/mL (≈ 1.35 µM) | 5 µg/mL (≈ 1.44 µM) | 38 µg/mL (≈ 10.9 µM)
